Format in all cases: cell-based
Experiment [1] deals with T1, 5-HT2C receptor (Homo sapiens, UniProt P28335).
T1 construct: host or cells: HEK293
T1 sequence (P28335 33-458): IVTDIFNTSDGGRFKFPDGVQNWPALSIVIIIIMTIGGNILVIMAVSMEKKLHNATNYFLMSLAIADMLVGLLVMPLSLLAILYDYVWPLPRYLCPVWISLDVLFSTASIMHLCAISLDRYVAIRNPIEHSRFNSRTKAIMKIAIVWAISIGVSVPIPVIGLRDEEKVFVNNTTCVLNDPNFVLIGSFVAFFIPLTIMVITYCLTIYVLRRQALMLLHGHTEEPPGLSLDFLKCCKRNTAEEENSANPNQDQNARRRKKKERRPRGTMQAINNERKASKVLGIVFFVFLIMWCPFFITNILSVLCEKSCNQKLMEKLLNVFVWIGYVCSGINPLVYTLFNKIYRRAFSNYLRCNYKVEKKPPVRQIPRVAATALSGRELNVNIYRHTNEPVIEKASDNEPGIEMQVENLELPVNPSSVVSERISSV
In words: FLIPR Ca2+ flux functional assay, agonist activity at 5-HT2C. The settings on record: stably transfected HEK293 cells. As to the method:
(§1) Functional assays 5-HT2A, 5-HT2B and 5-HT2C Receptors
(§2) Activity at 5-HT2A, 5-HT2B and 5-HT2C receptors was determined using a FLIPR Ca2+ flux assay at WuXi AppTec Co. Ltd. (Hong Kong) Discovery Biology Unit according to their standard protocols. Briefly, stably transfected cells expressing the receptor of interest (HEK293 for 5-HT2A and 5-HT2C; CHO-K1 for 5-HT2B) were grown and plated in a 384 well plate and incubated at 37° C. and 5% CO2 overnight. A 250 mM stock solution of probenecid in FLIPR calcium assay buffer (10 mL) was freshly prepared and combined with a fluorescent dye (Fluo-4 Direct) to give a final assay concentration of 2.5 mM. Reference compounds were 4-fold serially diluted and the screening compounds were 3-fold serially diluted in 100% DMSO for 10 points using Agilent Bravo, and 750 nL was added to a 384 well compound plate using Echo along with 30 μL assay buffer. The fluorescent dye was then added to the assay plate along with assay buffer to a final volume of 40 μL. The cell plate was incubated for 50 min at 37° C. and 5% CO2 and placed into the FLIPR Tetra along with the compound plate. 10 μL of references and compounds were then transferred from the compound plate into the cell plate and the fluorescent signal was read.

The target in experiment [2] is T2, 5-HT2B receptor (Homo sapiens, UniProt P41595).
T2 construct: host or cells: CHO-K1
In words: 5-HT2B activation in a similar assay at a single 10 μM concentration. As to the method: Activation data are provided in a similar assay tested at a single 10 μM concentration.

The target of experiment [3] is T3, 5-HT2A receptor (Homo sapiens, UniProt P28223).
T3 construct: host or cells: HEK293
In words: FLIPR Ca2+ flux functional assay, agonist activity at 5-HT2A. The settings on record: stably transfected HEK293 cells. As to the method:
as §1, §2
In general terms: Calcium flux is commonly read through the fluorescence of an indicator in the cells.

The record followed here is patent US20250361233A1, “Compounds For Activating Serotonin Receptor” (PSYLO PTY LTD, priority 2023, published 2025).

Broadly, the EC50 is the midpoint of the concentration-response curve. One may read the Emax as the maximal effect, on the per cent scale that the assay sets.

T3 sequence (P28223 whole entry): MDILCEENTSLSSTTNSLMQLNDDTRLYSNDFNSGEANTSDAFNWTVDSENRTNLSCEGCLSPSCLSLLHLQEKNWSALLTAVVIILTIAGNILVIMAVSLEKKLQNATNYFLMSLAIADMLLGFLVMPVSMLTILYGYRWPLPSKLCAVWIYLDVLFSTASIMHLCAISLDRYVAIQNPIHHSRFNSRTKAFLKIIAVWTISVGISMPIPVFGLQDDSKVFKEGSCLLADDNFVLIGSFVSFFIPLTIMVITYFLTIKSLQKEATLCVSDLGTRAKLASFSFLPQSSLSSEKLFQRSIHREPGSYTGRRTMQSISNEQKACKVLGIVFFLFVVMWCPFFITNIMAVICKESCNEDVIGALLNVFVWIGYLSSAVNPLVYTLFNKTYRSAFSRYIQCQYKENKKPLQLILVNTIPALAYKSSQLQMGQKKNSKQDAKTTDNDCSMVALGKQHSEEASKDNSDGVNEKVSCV
T2 sequence (P41595 whole entry): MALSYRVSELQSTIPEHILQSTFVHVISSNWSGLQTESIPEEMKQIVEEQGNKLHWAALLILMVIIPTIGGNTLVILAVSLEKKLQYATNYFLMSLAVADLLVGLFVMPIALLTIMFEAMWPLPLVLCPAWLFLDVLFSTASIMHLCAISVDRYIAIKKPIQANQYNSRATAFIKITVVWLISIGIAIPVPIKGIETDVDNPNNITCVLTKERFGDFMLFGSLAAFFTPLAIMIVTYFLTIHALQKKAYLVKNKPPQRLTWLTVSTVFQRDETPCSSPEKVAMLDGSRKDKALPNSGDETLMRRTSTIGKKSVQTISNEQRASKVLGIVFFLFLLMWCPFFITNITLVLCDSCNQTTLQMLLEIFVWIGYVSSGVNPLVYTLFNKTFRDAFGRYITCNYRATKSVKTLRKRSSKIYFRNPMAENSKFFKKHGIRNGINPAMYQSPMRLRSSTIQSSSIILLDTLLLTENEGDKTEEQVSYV

In experiment [1], `COc1cnc2[nH]cc(CCN3CCCCC3)c2c1` [Compound S47, 5-methoxy-3-(2-(piperidin-1-yl)ethyl)-1H-pyrrolo[2,3-b]pyridine] returned an EC50 of over 10000 nM and an Emax of 8%. Also, the “5-HT2B % Activation @ 10 μM” value in experiment [2] stood at 0%. In addition, in experiment [3], the response was half-maximal at 673 nM (EC50) and the Emax was 65%.
In experiment [1], `C[C@H]1CCN1CCc1c[nH]c2ncc(F)cc12` [Compound S48, (S)-5-fluoro-3-(2-(2-methylazetidin-1-yl)ethyl)-1H-pyrrolo[2,3-b]pyridine] came in with an EC50 of 3960 nM and an Emax of 44%. Besides, in experiment [2], the “5-HT2B % Activation @ 10 μM” value was 2%. In experiment [3], this compound registered an EC50 of 115 nM and an Emax of 82%.
As to `C[C@@H]1CCN1CCc1c[nH]c2ncc(F)cc12` [Compound S49, (R)-5-fluoro-3-(2-(2-methylazetidin-1-yl)ethyl)-1H-pyrrolo[2,3-b]pyridine], in experiment [1], the EC50 is over 10000 nM and the Emax turned out to be 28%. In addition, the “5-HT2B % Activation @ 10 μM” value in experiment [2] is 0%. In addition, in experiment [3], the EC50 was determined as 65.7 nM and the Emax was determined as 78%.
Take `C[C@@H]1CCCN1CCc1c[nH]c2ncc(F)cc12` [Compound S50, (R)-5-fluoro-3-(2-(2-methylpyrrolidin-1-yl)ethyl)-1H-pyrrolo[2,3-b]pyridine]: the EC50 turned out to be 3980 nM in experiment [1] and 66.5 nM in experiment [3]. For the same compound, the maximum response (Emax) in experiment [1] turned out to be 44%; in experiment [3], 90%. The “5-HT2B % Activation @ 10 μM” value in experiment [2] is recorded as 2%.
Take `C[C@H]1CCCN1CCc1c[nH]c2ncc(F)cc12` [Compound S51, (S)-5-fluoro-3-(2-(2-methylpyrrolidin-1-yl)ethyl)-1H-pyrrolo[2,3-b]pyridine]: in experiment [1], the 50% effective concentration (EC50) is over 10000 nM and the maximal effect (Emax) came to 2%. Moreover, the “5-HT2B % Activation @ 10 μM” value in experiment [2] was determined as 0%. In experiment [3], this compound came in with a 50% effective concentration (EC50) of 394 nM and an Emax of 86%.
In the case of `CCN(C)CCc1c[nH]c2ncc(Cl)cc12` [Compound S52, 2-(5-chloro-1H-pyrrolo[2,3-b]pyridin-3-yl)-N-ethyl-N-methylethan-1-amine], in experiment [1], the EC50 stood at 1950 nM and the Emax came to 49%. Moreover, the “5-HT2B % Activation @ 10 μM” value in experiment [2] is recorded as 3%. For the same compound, in experiment [3], the EC50 came out at 149 nM and the Emax is 61%.
The like results for `CC(C)N(C)CCc1c[nH]c2ncc(Cl)cc12` [Compound S53, N-(2-(5-chloro-1H-pyrrolo[2,3-b]pyridin-3-yl)ethyl)-N-methylpropan-2-amine] were, in that order, 2580 nM, 71%, 26%, 115 nM and 84%.
In the case of `CCN(C)CCc1c[nH]c2ncc(Br)cc12` [Compound S54, 2-(5-bromo-1H-pyrrolo[2,3-b]pyridin-3-yl)-N-ethyl-N-methylethan-1-amine], in experiment [1], the EC50 was over 10000 nM and the Emax is 19%. In addition, the “5-HT2B % Activation @ 10 μM” value in experiment [2] was found to be 1%. In experiment [3], this compound returned an EC50 of 223 nM and a maximal response (Emax) of 69%.
The like results for `CC(C)N(C)CCc1c[nH]c2ncc(Br)cc12` [Compound S55, N-(2-(5-bromo-1H-pyrrolo[2,3-b]pyridin-3-yl)ethyl)-N-methylpropan-2-amine] were, in that order, 3590 nM, 34%, 4%, 158 nM and 73%.
In the case of `CN(CCc1c[nH]c2ncc(Br)cc12)C1CC1` [Compound S56, N-(2-(5-bromo-1H-pyrrolo[2,3-b]pyridin-3-yl)ethyl)-N-methylcyclopropanamine], in experiment [1], the EC50 turned out to be 1850 nM and the Emax was 45%. Moreover, in experiment [2], the “5-HT2B % Activation @ 10 μM” value is 2%. For the same compound, in experiment [3], the response was half-maximal at 226 nM (EC50) and the Emax was 54%.
With `Brc1cnc2[nH]cc(CCN3CCCC3)c2c1` [Compound S57, 5-bromo-3-(2-(pyrrolidin-1-yl)ethyl)-1H-pyrrolo[2,3-b]pyridine], in experiment [1], the EC50 was determined as 3480 nM and the Emax turned out to be 62%. Also, the “5-HT2B % Activation @ 10 μM” value in experiment [2] is on record as 12%. In experiment [3], this compound displayed an EC50 of 897 nM and a maximum response (Emax) of 86%.
As for `Brc1cnc2[nH]cc(CCN3CCC3)c2c1` [Compound S58, 3-(2-(azetidin-1-yl)ethyl)-5-bromo-1H-pyrrolo[2,3-b]pyridine], in experiment [1], the EC50 came out at 231 nM and the Emax stood at 67%. Besides, the “5-HT2B % Activation @ 10 μM” value in experiment [2] is given as 3%. Also, in experiment [3], the EC50 is 124 nM and the Emax is 79%.
The like results for `CC1CCN1CCc1c[nH]c2ncc(Br)cc12` (centres unmarked) [Compound S59, 5-bromo-3-(2-(2-methylazetidin-1-yl)ethyl)-1H-pyrrolo[2,3-b]pyridine] were, in that order, over 10000 nM, 19%, 0%, 410 nM and 69%.
In experiment [1], `Fc1ccccc1CNCCc1c[nH]c2ncc(Br)cc12` [Compound S60, 2-(5-bromo-1H-pyrrolo[2,3-b]pyridin-3-yl)-N-(2-fluorobenzyl)ethan-1-amine] yielded an EC50 of 1790 nM and an Emax of 63%. The “5-HT2B % Activation @ 10 μM” value in experiment [2] was 0%. Moreover, in experiment [3], the EC50 is 285 nM and the maximal effect (Emax) is 66%.
As to `Fc1cccc(CNCCc2c[nH]c3ncc(Br)cc23)c1` [Compound S61, 2-(5-bromo-1H-pyrrolo[2,3-b]pyridin-3-yl)-N-(3-fluorobenzyl)ethan-1-amine], in experiment [1], the EC50 was determined as 1920 nM and the Emax turned out to be 73%. For the same compound, the “5-HT2B % Activation @ 10 μM” value in experiment [2] was 0%. For the same compound, in experiment [3], the EC50 worked out at 74.7 nM and the Emax was found to be 65%.
Consider `COc1ccccc1CNCCc1c[nH]c2ncc(Br)cc12` [Compound S62, 2-(5-bromo-1H-pyrrolo[2,3-b]pyridin-3-yl)-N-(2-methoxybenzyl)ethan-1-amine], for which, in experiment [1], the response was half-maximal at 480 nM (EC50) and the maximal effect (Emax) came to 85%. Besides, the “5-HT2B % Activation @ 10 μM” value in experiment [2] turned out to be 1%. Besides, in experiment [3], it took 7.86 nM to reach a half-maximal effect (EC50) and the Emax was determined as 78%.
`COc1cccc(CNCCc2c[nH]c3ncc(Br)cc23)c1` [Compound S63, 2-(5-bromo-1H-pyrrolo[2,3-b]pyridin-3-yl)-N-(3-methoxybenzyl)ethan-1-amine]: the 50% effective concentration (EC50) stood at 2970 nM in experiment [1] and 104 nM in experiment [3]. Moreover, the values for the Emax in experiment [1] and in experiment [3] were 48% and 63%, respectively. Further, the “5-HT2B % Activation @ 10 μM” value in experiment [2] worked out at 0%.
`CCN(C)CCc1c[nH]c2ncc(OC(F)(F)F)cc12` [Compound S64, N-ethyl-N-methyl-2-(5-(trifluoromethoxy)-1H-pyrrolo[2,3-b]pyridin-3-yl)ethan-1-amine]: the EC50 in experiment [1] was over 10000 nM; in experiment [3] it was 1670 nM. Moreover, the Emax is 0% in experiment [1] and 47% in experiment [3]. Besides, the “5-HT2B % Activation @ 10 μM” value in experiment [2] worked out at 1%.
The like results for `CC(C)N(C)CCc1c[nH]c2ncc(OC(F)(F)F)cc12` [Compound S65, N-methyl-N-(2-(5-(trifluoromethoxy)-1H-pyrrolo[2,3-b]pyridin-3-yl)ethyl)propan-2-amine] were, in that order, over 10000 nM, 665 nM, 0%, 73% and 1%.
